Laboratory results published in ChEMBL document CHEMBL1201862, “PubChem BioAssay data set” (2004).
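How tested: cells in 96-well plates exposed to compound for 48 hours at five concentrations. GI50 marks 50% less growth.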 Calls of active or inactive are those of the source. Cut-off read from the data, not from the text of the source: active = GI50 up to about 1.1 µM and inactive = higher.

What was measured:
Experiment in all cases: NCI-60 cell line screen, 48 h
[1] = system: MOLT-4
[2] = system: HL-60
[3] = system: NCI-H23
[4] = system: HOP-92
[5] = system: LOX IMVI
[6] = system: HCC 2998
[7] = system: MDA-N
[8] = system: HOP-62
[9] = system: NCI-H460
[10] = system: OVCAR-8
[11] = system: OVCAR-5
[12] = system: SK-MEL-5
[13] = system: 786-0
[14] = system: U-251
[15] = system: UACC-257
[16] = system: IGROV-1
[17] = system: SW-620
[18] = system: SK-OV-3
[19] = system: NCI-H522

| Structure (SMILES) | GI50 [1] | GI50 [2] | GI50 [3] | GI50 [4] | GI50 [5] | GI50 [6] | GI50 [7] | GI50 [8] | GI50 [9] | GI50 [10] | GI50 [11] | GI50 [12] | GI50 [13] | GI50 [14] | GI50 [15] | GI50 [16] | GI50 [17] | GI50 [18] | GI50 [19] |
| --- | --- | --- | --- | --- | --- | --- | --- | --- | --- | --- | --- | --- | --- | --- | --- | --- | --- | --- | --- |
| Cn1c(=O)cc(NNc2ccc(Cl)c(Cl)c2)[nH]c1=O | 14.5 µM (inactive) | 8 µM (inactive) | 29.2 µM (inactive) | 14.9 µM (inactive) | 12.2 µM (inactive) | 2.53 µM (inactive) | 9.06 µM (inactive) | 16.4 µM (inactive) | 4.86 µM (inactive) | 13.6 µM (inactive) | 14.4 µM (inactive) | 5.31 µM (inactive) | 12.4 µM (inactive) | 12.4 µM (inactive) | 14.9 µM (inactive) | 6.52 µM (inactive) | 6.1 µM (inactive) | 20.8 µM (inactive) | – |
| CC(C)(C)C1CCC2c3c([nH]c4ccccc34)C3C(=O)N(c4ccc(C#N)cc4)C(=O)C3C2C1 (stereo not drawn) | 0.678 µM (active) | 3.42 µM (inactive) | 6.61 µM (inactive) | 4.54 µM (inactive) | 13.2 µM (inactive) | 3.25 µM (inactive) | 11.9 µM (inactive) | 15.7 µM (inactive) | 3.81 µM (inactive) | 14.5 µM (inactive) | 20.7 µM (inactive) | 12.9 µM (inactive) | 12 µM (inactive) | 15.8 µM (inactive) | 20.2 µM (inactive) | 16.4 µM (inactive) | 8.13 µM (inactive) | 24.4 µM (inactive) | – |
| COc1cc(NC(C)=O)ccc1C(=O)N/N=C/c1ccco1 | 31.3 µM (inactive) | 46.5 µM (inactive) | > 100 µM (inactive) | > 100 µM (inactive) | 97.5 µM (inactive) | – | > 100 µM (inactive) | > 100 µM (inactive) | – | > 100 µM (inactive) | > 100 µM (inactive) | 44.5 µM (inactive) | > 100 µM (inactive) | – | – | > 100 µM (inactive) | > 100 µM (inactive) | > 100 µM (inactive) | > 100 µM (inactive) |
| O=C(Nc1ccccc1)N(C1=NCC(CI)S1)c1ccc(F)cc1F (stereo not drawn) | 21.6 µM (inactive) | 20.1 µM (inactive) | 50.6 µM (inactive) | 13.8 µM (inactive) | 16 µM (inactive) | 74.3 µM (inactive) | 35.9 µM (inactive) | > 100 µM (inactive) | – | > 100 µM (inactive) | > 100 µM (inactive) | 46 µM (inactive) | 46 µM (inactive) | > 100 µM (inactive) | 23.2 µM (inactive) | 20.9 µM (inactive) | 62.1 µM (inactive) | > 100 µM (inactive) | 37.9 µM (inactive) |
| O=[N+]([O-])c1cccc(-c2ncnc(-c3cccc([N+](=O)[O-])c3)n2)c1 | > 100 µM (inactive) | 36.6 µM (inactive) | 58.5 µM (inactive) | 19.5 µM (inactive) | > 100 µM (inactive) | > 100 µM (inactive) | > 100 µM (inactive) | 17.8 µM (inactive) | – | > 100 µM (inactive) | > 100 µM (inactive) | > 100 µM (inactive) | 27.4 µM (inactive) | 23.5 µM (inactive) | 38.7 µM (inactive) | > 100 µM (inactive) | > 100 µM (inactive) | 27.1 µM (inactive) | 38.5 µM (inactive) |
| COc1ccc(N2C(=O)C(C#N)=C(SC)C(C#N)C2=O)cc1 (stereo not drawn) | > 100 µM (inactive) | – | – | 46.6 µM (inactive) | > 100 µM (inactive) | > 100 µM (inactive) | > 100 µM (inactive) | > 100 µM (inactive) | > 100 µM (inactive) | > 100 µM (inactive) | > 100 µM (inactive) | > 100 µM (inactive) | > 100 µM (inactive) | > 100 µM (inactive) | > 100 µM (inactive) | > 100 µM (inactive) | > 100 µM (inactive) | > 100 µM (inactive) | > 100 µM (inactive) |
| O=C1c2ccccc2C(=O)c2c(NCCCN3CCOCC3)ccc(NCCCN3CCOCC3)c21 | 1.09 µM (active) | 2.45 µM (inactive) | < 0.01 µM (active) | 1.89 µM (inactive) | 1.54 µM (inactive) | 2.86 µM (inactive) | 3.22 µM (inactive) | 2.12 µM (inactive) | 1.54 µM (inactive) | 1.9 µM (inactive) | 9.42 µM (inactive) | 2.51 µM (inactive) | 2.29 µM (inactive) | 3.24 µM (inactive) | 2.96 µM (inactive) | 4.69 µM (inactive) | 3.97 µM (inactive) | – | 0.67 µM (active) |
| COc1ccc(N2C=Nn3c(nc4sc(C)c(C)c4c3=O)C2)cc1 | > 100 µM (inactive) | – | > 100 µM (inactive) | > 100 µM (inactive) | > 100 µM (inactive) | > 100 µM (inactive) | > 100 µM (inactive) | 28.6 µM (inactive) | > 100 µM (inactive) | > 100 µM (inactive) | > 100 µM (inactive) | > 100 µM (inactive) | 38.3 µM (inactive) | > 100 µM (inactive) | > 100 µM (inactive) | > 100 µM (inactive) | > 100 µM (inactive) | > 100 µM (inactive) | > 100 µM (inactive) |
| CC1(C)[C@@H]2CC[C@]1(C)[C@H](OC(=O)CSC#N)C2 | – | – | > 100 µM (inactive) | > 100 µM (inactive) | 35.2 µM (inactive) | > 100 µM (inactive) | > 100 µM (inactive) | > 100 µM (inactive) | > 100 µM (inactive) | 34.2 µM (inactive) | > 100 µM (inactive) | > 100 µM (inactive) | 18.3 µM (inactive) | > 100 µM (inactive) | > 100 µM (inactive) | > 100 µM (inactive) | 17.9 µM (inactive) | > 100 µM (inactive) | 43.9 µM (inactive) |
| CO[P@]1(=O)O[C@@H](c2ccccc2)[C@H](O)[C@]1(O)c1ccccc1 | – | > 100 µM (inactive) | > 100 µM (inactive) | > 100 µM (inactive) | > 100 µM (inactive) | – | > 100 µM (inactive) | – | > 100 µM (inactive) | > 100 µM (inactive) | > 100 µM (inactive) | > 100 µM (inactive) | > 100 µM (inactive) | > 100 µM (inactive) | > 100 µM (inactive) | > 100 µM (inactive) | > 100 µM (inactive) | > 100 µM (inactive) | > 100 µM (inactive) |
| O=C(CCN1CCOCC1)c1ccc(Oc2ccc(F)cc2)cc1 | 23.7 µM (inactive) | 35.5 µM (inactive) | 26.7 µM (inactive) | 28.1 µM (inactive) | 21.8 µM (inactive) | 37.2 µM (inactive) | 23.8 µM (inactive) | 50.2 µM (inactive) | > 100 µM (inactive) | 19.4 µM (inactive) | 24.2 µM (inactive) | 31.3 µM (inactive) | 17.1 µM (inactive) | 53.2 µM (inactive) | 17.7 µM (inactive) | 19.5 µM (inactive) | 30.3 µM (inactive) | > 100 µM (inactive) | – |
| C[n+]1c(/C=C/c2ccc(O)c3ncccc23)[se]c2ccccc21 | 1.94 µM (inactive) | 2.55 µM (inactive) | 4.05 µM (inactive) | 4.22 µM (inactive) | 2.33 µM (inactive) | – | 5.98 µM (inactive) | 3.3 µM (inactive) | 2.51 µM (inactive) | 2.87 µM (inactive) | 9.86 µM (inactive) | 7.76 µM (inactive) | 2.99 µM (inactive) | 2.88 µM (inactive) | 2.29 µM (inactive) | 3 µM (inactive) | 3.98 µM (inactive) | 5.96 µM (inactive) | 2.58 µM (inactive) |
| Cn1c(=O)c2c(ncn2CCSS(=O)(=O)O)n(C)c1=O | – | – | > 100 µM (inactive) | > 100 µM (inactive) | – | – | > 100 µM (inactive) | 86.9 µM (inactive) | 66.4 µM (inactive) | > 100 µM (inactive) | > 100 µM (inactive) | > 100 µM (inactive) | > 100 µM (inactive) | 45.8 µM (inactive) | > 100 µM (inactive) | > 100 µM (inactive) | > 100 µM (inactive) | > 100 µM (inactive) | > 100 µM (inactive) |
| O=c1[nH]nc(Cc2ccccc2)[nH]1 | > 100 µM (inactive) | > 100 µM (inactive) | > 100 µM (inactive) | > 100 µM (inactive) | > 100 µM (inactive) | > 100 µM (inactive) | > 100 µM (inactive) | > 100 µM (inactive) | > 100 µM (inactive) | > 100 µM (inactive) | > 100 µM (inactive) | > 100 µM (inactive) | > 100 µM (inactive) | > 100 µM (inactive) | > 100 µM (inactive) | > 100 µM (inactive) | > 100 µM (inactive) | – | > 100 µM (inactive) |
| CCOC(=O)CCC(C(=O)OCC)n1nnc2ccc(Nc3c(C)[n+]([O-])c4ccc(Cl)cc4[n+]3[O-])cc21 (stereo not drawn) | 34.5 µM (inactive) | 39.2 µM (inactive) | 33.5 µM (inactive) | 23.8 µM (inactive) | 28.8 µM (inactive) | – | 54.7 µM (inactive) | 36.1 µM (inactive) | 49.7 µM (inactive) | 39.2 µM (inactive) | 54.1 µM (inactive) | 39.4 µM (inactive) | 44 µM (inactive) | 46.3 µM (inactive) | 19.2 µM (inactive) | 40.5 µM (inactive) | 54 µM (inactive) | 60.1 µM (inactive) | 43.4 µM (inactive) |
| CN(C)Cc1cc(/N=N/c2ccccc2)ccc1O | 33.9 µM (inactive) | 41.5 µM (inactive) | 98.9 µM (inactive) | 23.2 µM (inactive) | 26.7 µM (inactive) | 34.1 µM (inactive) | 44 µM (inactive) | 39.7 µM (inactive) | 40.5 µM (inactive) | 76.4 µM (inactive) | 42.7 µM (inactive) | 15.1 µM (inactive) | 65.5 µM (inactive) | > 100 µM (inactive) | 25.6 µM (inactive) | 32.5 µM (inactive) | 57.7 µM (inactive) | – | 29.6 µM (inactive) |
